Measured values: US20120064154A1, “SOLID DRUG FOR ORAL USE” (KISSEI PHARMACEUTICAL CO., LTD., priority 2002, published 2012)

Tests used:
[1] = Stability of KMD-3213; type: physicochemical
[2] = Solubility of KMD-3213; type: physicochemical

stability ([1]; against a light exposure): relatively unstable
stability ([1]; in acidic conditions): stable
solubility ([2]; in a neutral medium such as water): hardly soluble
solubility ([2]; in an acidic medium): relatively a high solubility
SMILES: C[C@H](Cc1cc2c(c(C(N)=O)c1)N(CCCO)CC2)NCCOc1ccccc1OCC(F)(F)F [KMD-3213]
